In brackets after ≈: the same amount, converted by molar mass.
Key:
Type in all cases: functional
[1] = test system: Klebsiella pneumoniae; test: Antibacterial activity against Carbapenem- resistant Klebsiella pneumoniae KR 15-8 assessed as reduction in bacterial growth
[2] = test system: Pseudomonas aeruginosa; test: Antibacterial activity against Carbapenem- sensitive Pseudomonas aeruginosa 17-10 assessed as reduction in bacterial growth
[3] = test system: Escherichia coli; test: Antibacterial activity against ESBLs positive Carbapenem-sensitive Escherichia coli 17-3 assessed as reduction in bacterial growth
[4] = test system: Escherichia coli; test: Antibacterial activity against ESBLs positive Carbapenem-sensitive Escherichia coli 17-21 assessed as reduction in bacterial growth
[5] = test system: Pseudomonas aeruginosa; test: Antibacterial activity against Carbapenem- sensitive Pseudomonas aeruginosa 17-24 assessed as reduction in bacterial growth
[6] = test system: Klebsiella pneumoniae; test: Antibacterial activity against ESBLs negative Carbapenem-sensitive Klebsiella pneumoniae 17-20 assessed as reduction in bacterial growth
[7] = test system: Enterobacter cloacae; test: Antibacterial activity against Enterobacter cloacae 17-4 assessed as reduction in bacterial growth
[8] = test system: Acinetobacter baumannii; test: Antibacterial activity against Carbapenem- resistant Acinetobacter baumannii 17-8 assessed as reduction in bacterial growth
[9] = test system: Klebsiella aerogenes; test: Antibacterial activity against Enterobacter aerogenes 17-4 assessed as reduction in bacterial growth
[10] = test system: Klebsiella aerogenes; test: Antibacterial activity against Enterobacter aerogenes 17-2 assessed as reduction in bacterial growth
[11] = test system: Enterobacter cloacae; test: Antibacterial activity against Enterobacter cloacae 17-7 assessed as reduction in bacterial growth
[12] = test system: Klebsiella pneumoniae; test: Antibacterial activity against Carbapenem- sensitive Klebsiella pneumoniae 17-12 overexpressing extended spectrum beta-lactamases assessed as reduction in bacterial growth
[13] = test system: Pseudomonas aeruginosa; test: Antibacterial activity against Carbapenem- sensitive Pseudomonas aeruginosa 17-22 assessed as reduction in bacterial growth
[14] = test system: Klebsiella pneumoniae; test: Antibacterial activity against Carbapenem- sensitive Klebsiella pneumoniae 17-9 overexpressing extended spectrum beta-lactamases assessed as reduction in bacterial growth
[15] = test system: Acinetobacter baumannii; test: Antibacterial activity against Carbapenem- resistant Acinetobacter baumannii 17-12 assessed as reduction in bacterial growth
[16] = test system: Klebsiella pneumoniae; test: Antibacterial activity against Carbapenem- sensitive Klebsiella pneumoniae 17-5 overexpressing extended spectrum beta-lactamases assessed as reduction in bacterial growth
[17] = test system: Klebsiella pneumoniae; test: Antibacterial activity against Carbapenem- sensitive Klebsiella pneumoniae 17-4 overexpressing extended spectrum beta-lactamases assessed as reduction in bacterial growth
[18] = test system: Klebsiella aerogenes; test: Antibacterial activity against Enterobacter aerogenes 17-3 assessed as reduction in bacterial growth
[19] = test system: Pseudomonas aeruginosa; test: Antibacterial activity against Carbapenem- resistant Pseudomonas aeruginosa 17-8 assessed as reduction in bacterial growth
[20] = test system: Escherichia coli; test: Antibacterial activity against ESBLs positive Carbapenem-sensitive Escherichia coli 17-10 assessed as reduction in bacterial growth
[21] = test system: Enterobacter cloacae; test: Antibacterial activity against Enterobacter cloacae 17-5 assessed as reduction in bacterial growth
[22] = test system: Klebsiella pneumoniae; test: Antibacterial activity against ESBLs negative Carbapenem-sensitive Klebsiella pneumoniae 17-16 assessed as reduction in bacterial growth
[23] = test system: Klebsiella pneumoniae; test: Antibacterial activity against Carbapenem- sensitive Klebsiella pneumoniae 17-3 overexpressing extended spectrum beta-lactamases assessed as reduction in bacterial growth
[24] = test system: Escherichia coli; test: Antibacterial activity against ESBLs negative Carbapenem-sensitive Escherichia coli 17-16 assessed as reduction in bacterial growth
[25] = test system: Klebsiella pneumoniae; test: Antibacterial activity against Carbapenem- resistant Klebsiella pneumoniae KR 15-11 assessed as reduction in bacterial growth
[26] = test system: Klebsiella pneumoniae; test: Antibacterial activity against Carbapenem- resistant Klebsiella pneumoniae KR 15-4 assessed as reduction in bacterial growth
[27] = test system: Escherichia coli; test: Antibacterial activity against ESBLs negative Carbapenem-sensitive Escherichia coli 17-9 assessed as reduction in bacterial growth
[28] = test system: Escherichia coli; test: Antibacterial activity against ESBLs positive Carbapenem-sensitive Escherichia coli 17-8 assessed as reduction in bacterial growth
[29] = test system: Pseudomonas aeruginosa; test: Antibacterial activity against Carbapenem- sensitive Pseudomonas aeruginosa 17-21 assessed as reduction in bacterial growth
[30] = test system: Acinetobacter baumannii; test: Antibacterial activity against Acinetobacter baumannii NCTC 13304 assessed as reduction in bacterial growth
[31] = test system: Klebsiella pneumoniae; test: Antibacterial activity against Carbapenem- resistant Klebsiella pneumoniae KR 15-7 assessed as reduction in bacterial growth
[32] = test system: Escherichia coli; test: Antibacterial activity against Escherichia coli ATCC 25922 assessed as reduction in bacterial growth
[33] = test system: Klebsiella pneumoniae; test: Antibacterial activity against Carbapenem- sensitive Klebsiella pneumoniae 17-8 overexpressing extended spectrum beta-lactamases assessed as reduction in bacterial growth
[34] = test system: Klebsiella aerogenes; test: Antibacterial activity against Enterobacter aerogenes 15-6 assessed as reduction in bacterial growth
[35] = test system: Acinetobacter baumannii; test: Antibacterial activity against Carbapenem- resistant Acinetobacter baumannii 17-6 assessed as reduction in bacterial growth
[36] = test system: Klebsiella pneumoniae; test: Antibacterial activity against ESBLs negative Carbapenem-sensitive Klebsiella pneumonia 15-2 assessed as reduction in bacterial growth
[37] = test system: Escherichia coli; test: Antibacterial activity against ESBLs positive Carbapenem-sensitive Escherichia coli 17-2 assessed as reduction in bacterial growth
[38] = test system: Klebsiella pneumoniae; test: Antibacterial activity against Carbapenem- resistant Klebsiella pneumoniae KR 15-13 assessed as reduction in bacterial growth
[39] = test system: Pseudomonas aeruginosa; test: Antibacterial activity against Pseudomonas aeruginosa ATCC 27853 assessed as reduction in bacterial growth
[40] = test system: Escherichia coli; test: Antibacterial activity against ESBLs positive Carbapenem-sensitive Escherichia coli 17-12 assessed as reduction in bacterial growth
[41] = test system: Pseudomonas aeruginosa; test: Antibacterial activity against Carbapenem- resistant Pseudomonas aeruginosa 17-1 assessed as reduction in bacterial growth
[42] = test system: Enterobacter cloacae; test: Antibacterial activity against Enterobacter cloacae 17-1 assessed as reduction in bacterial growth
[43] = test system: Pseudomonas aeruginosa; test: Antibacterial activity against Carbapenem- resistant Pseudomonas aeruginosa 17-5 assessed as reduction in bacterial growth
[44] = test system: Acinetobacter baumannii; test: Antibacterial activity against Carbapenem- resistant Acinetobacter baumannii 17-11 assessed as reduction in bacterial growth
[45] = test system: Acinetobacter baumannii; test: Antibacterial activity against Carbapenem- resistant Acinetobacter baumannii 17-9 assessed as reduction in bacterial growth
[46] = test system: Klebsiella pneumoniae; test: Antibacterial activity against Klebsiella pneumoniae ATCC BAA-1705 assessed as reduction in bacterial growth
[47] = test system: Klebsiella pneumoniae; test: Antibacterial activity against Carbapenem- resistant Klebsiella pneumoniae KR 15-12 assessed as reduction in bacterial growth
[48] = test system: Klebsiella aerogenes; test: Antibacterial activity against Enterobacter aerogenes 17-5 assessed as reduction in bacterial growth
[49] = test system: Escherichia coli; test: Antibacterial activity against ESBLs positive Carbapenem-sensitive Escherichia coli 17-18 assessed as reduction in bacterial growth
[50] = test system: Escherichia coli; test: Antibacterial activity against ESBLs negative Carbapenem-sensitive Escherichia coli 17-7 assessed as reduction in bacterial growth
[51] = test system: Klebsiella aerogenes; test: Antibacterial activity against Enterobacter aerogenes 17-1 assessed as reduction in bacterial growth
[52] = test system: Enterobacter cloacae; test: Antibacterial activity against Enterobacter cloacae 17-8 assessed as reduction in bacterial growth
[53] = test system: Escherichia coli; test: Antibacterial activity against ESBLs negative Carbapenem-sensitive Escherichia coli 17-1 assessed as reduction in bacterial growth
[54] = test system: Acinetobacter baumannii; test: Antibacterial activity against Carbapenem- resistant Acinetobacter baumannii 17-10 assessed as reduction in bacterial growth
[55] = test system: Escherichia coli; test: Antibacterial activity against ESBLs positive Carbapenem-sensitive Escherichia coli 17-17 assessed as reduction in bacterial growth

**Q.** How did the MIC [1] turn out when CC(C)(O/N=C(\C(=O)N[C@@H]1C(=O)N2C(C(=O)[O-])=C(C[n+]3ccccc3)CS[C@H]12)c1csc(N)n1)C(=O)O [CEFTAZIDIME] was run?
**A.** Its MIC is greater than 64 µg/mL.

**Q.** What about the MIC [2] of the same compound?
**A.** The MIC was 8 µg/mL (≈ 14.6 µM).

**Q.** And the MIC [3]?
**A.** Its MIC is 2 µg/mL (≈ 3.66 µM).

**Q.** And the MIC [4]?
**A.** The MIC was 8 µg/mL (≈ 14.6 µM).

**Q.** What about the MIC [5] of the same compound?
**A.** Its MIC is 2 µg/mL (≈ 3.66 µM).

**Q.** What about the MIC [6] of the same compound?
**A.** Its MIC is 0.125 µg/mL (≈ 0.229 µM).

**Q.** What about the MIC [7] of the same compound?
**A.** The MIC was 0.5 µg/mL (≈ 0.915 µM).

**Q.** And the MIC [8]?
**A.** The MIC was greater than 64 µg/mL.

**Q.** What about the MIC [9] of the same compound?
**A.** The MIC was 8 µg/mL (≈ 14.6 µM).

**Q.** What about the MIC [10] of the same compound?
**A.** Its MIC is 16 µg/mL (≈ 29.3 µM).

**Q.** What about the MIC [11] of the same compound?
**A.** The MIC was greater than 64 µg/mL.

**Q.** And the MIC [12]?
**A.** Its MIC is 4 µg/mL (≈ 7.32 µM).

**Q.** And the MIC [13]?
**A.** The MIC was 0.5 µg/mL (≈ 0.915 µM).

**Q.** What about the MIC [14] of the same compound?
**A.** The MIC was 64 µg/mL (≈ 117 µM).

**Q.** What about the MIC [15] of the same compound?
**A.** Its MIC is 64 µg/mL (≈ 117 µM).

**Q.** What about the MIC [16] of the same compound?
**A.** Its MIC is 1 µg/mL (≈ 1.83 µM).

**Q.** What about the MIC [17] of the same compound?
**A.** Its MIC is greater than 64 µg/mL.

**Q.** What about the MIC [18] of the same compound?
**A.** Its MIC is 0.5 µg/mL (≈ 0.915 µM).

**Q.** And the MIC [19]?
**A.** Its MIC is 32 µg/mL (≈ 58.5 µM).

**Q.** What about the MIC [20] of the same compound?
**A.** Its MIC is 4 µg/mL (≈ 7.32 µM).

**Q.** And the MIC [21]?
**A.** The MIC was 64 µg/mL (≈ 117 µM).

**Q.** What about the MIC [22] of the same compound?
**A.** The MIC was 2 µg/mL (≈ 3.66 µM).

**Q.** And the MIC [23]?
**A.** Its MIC is greater than 64 µg/mL.

**Q.** What about the MIC [24] of the same compound?
**A.** Its MIC is 0.5 µg/mL (≈ 0.915 µM).

**Q.** What about the MIC [25] of the same compound?
**A.** The MIC was greater than 64 µg/mL.

**Q.** What about the MIC [26] of the same compound?
**A.** Its MIC is greater than 64 µg/mL.

**Q.** And the MIC [27]?
**A.** The MIC was 0.5 µg/mL (≈ 0.915 µM).

**Q.** And the MIC [28]?
**A.** The MIC was 16 µg/mL (≈ 29.3 µM).

**Q.** What about the MIC [29] of the same compound?
**A.** Its MIC is 4 µg/mL (≈ 7.32 µM).

**Q.** And the MIC [30]?
**A.** The MIC was 64 µg/mL (≈ 117 µM).

**Q.** And the MIC [31]?
**A.** Its MIC is greater than 64 µg/mL.

**Q.** What about the MIC [32] of the same compound?
**A.** The MIC was 0.06 µg/mL (≈ 0.11 µM).

**Q.** And the MIC [33]?
**A.** Its MIC is greater than 64 µg/mL.

**Q.** And the MIC [34]?
**A.** Its MIC is 8 µg/mL (≈ 14.6 µM).

**Q.** What about the MIC [35] of the same compound?
**A.** The MIC was greater than 64 µg/mL.

**Q.** And the MIC [36]?
**A.** Its MIC is 0.125 µg/mL (≈ 0.229 µM).

**Q.** And the MIC [37]?
**A.** Its MIC is 2 µg/mL (≈ 3.66 µM).

**Q.** And the MIC [38]?
**A.** The MIC was 64 µg/mL (≈ 117 µM).

**Q.** What about the MIC [39] of the same compound?
**A.** Its MIC is 1 µg/mL (≈ 1.83 µM).

**Q.** And the MIC [40]?
**A.** Its MIC is 8 µg/mL (≈ 14.6 µM).

**Q.** What about the MIC [41] of the same compound?
**A.** Its MIC is 32 µg/mL (≈ 58.5 µM).

**Q.** And the MIC [42]?
**A.** The MIC was 0.5 µg/mL (≈ 0.915 µM).

**Q.** What about the MIC [43] of the same compound?
**A.** The MIC was 64 µg/mL (≈ 117 µM).

**Q.** What about the MIC [44] of the same compound?
**A.** Its MIC is 32 µg/mL (≈ 58.5 µM).

**Q.** And the MIC [45]?
**A.** The MIC was greater than 64 µg/mL.

**Q.** What about the MIC [46] of the same compound?
**A.** The MIC was 64 µg/mL (≈ 117 µM).

**Q.** And the MIC [47]?
**A.** Its MIC is 64 µg/mL (≈ 117 µM).

**Q.** And the MIC [48]?
**A.** Its MIC is 16 µg/mL (≈ 29.3 µM).

**Q.** What about the MIC [49] of the same compound?
**A.** The MIC was 2 µg/mL (≈ 3.66 µM).

**Q.** What about the MIC [50] of the same compound?
**A.** Its MIC is 0.125 µg/mL (≈ 0.229 µM).

**Q.** And the MIC [51]?
**A.** Its MIC is 8 µg/mL (≈ 14.6 µM).

**Q.** And the MIC [52]?
**A.** Its MIC is 0.125 µg/mL (≈ 0.229 µM).

**Q.** What about the MIC [53] of the same compound?
**A.** The MIC was 64 µg/mL (≈ 117 µM).

**Q.** What about the MIC [54] of the same compound?
**A.** The MIC was 32 µg/mL (≈ 58.5 µM).

**Q.** What about the MIC [55] of the same compound?
**A.** Its MIC is 32 µg/mL (≈ 58.5 µM).
